Test results as given in the NIST ThermoML archive (doi:10.1016/j.fluid.2006.06.005).
± gives the expanded uncertainty stated by the source.

details: 323.15 K; Liquid

Row | Structure (SMILES) | vapor or sublimation pressure [kPa]
1 | CC(=O)O [acetic acid] | 7.72 ± 0.28
2 | CO [methanol] | 55.61 ± 0.52
3 | COC(C)=O [methyl ethanoate] | 79.21 ± 0.71
4 | O [water] | 12.35 ± 0.17
